This passage reports IC50 results from patent US20240109898A1, “SUBSTITUTED PYRAZOLO[1,5-A]PYRIMIDINE-7-AMINE DERIVATIVES, COMPOSITIONS AND PHARMACEUTICAL USES THEREOF” (SHANGHAI HAIYAN PHARMACEUTICAL TECHNOLOGY CO., LTD., priority 2021, published 2024).

SMILES strings stand for the structures.

Assay type in all cases: biochemical
In test [1] the target is CDK9/CycT (Homo sapiens (Human), UniProt P50750). Kind of test: LANCE Ultra kinase activity inhibition assay, CDK9/CycT. Conditions: ATP 10 μM, highest compound concentration 1 μM. Here is the method:
(§1) In the following LANCE Ultra test methods, kinase reagents were purchased from Carna Bioscience, reaction substrates and detection reagents were purchased from PerkinElmer, and the remaining reagents were purchased from Thermo scientific.
The inhibiting effects on the kinase activity of CDK1/CycB (Carna bioscience, #04-102), CDK2/CycA (Carna bioscience, #04-103) and CDK9/CycT (Carna bioscience, #04-110) were determined by using LANCE Ultra method.
The kinase activity test was performed using a system (10 μL) containing the following components: substrate diluent prepared by mixing CDK kinase diluent, Ulight-Myelic basic protein (Perkin Elmer, #TRF-0109, hereinafter referred to as U-MBP) and ATP (Thermo scientific, #PV3227); and the compounds (i.e., analyte) prepared in the examples of the present disclosure. The assay for each kinase includes three test groups, i.e., a background group (Blank), a non-inhibition group (PC), and compound testing group (Test). The components included in each test group were as follows:
(§2) Working concentrations of the respective components of the Test groups in different kinase reactions were as follows.
(§3) Compounds: 10 mM of the compound to be tested was dissolved at room temperature and diluted with DMSO to gradient concentrations, followed by diluting with deionized water to prepare a 4× working solution of the compound, and the content of DMSO was 2%. The highest concentration of compound used in the CDK1 and CDK2 assays was 10 μM, and that in CDK9 assay was 1 μM.
1.33×reaction buffer: the components include 26.7 mM of MOPS, 6.67 mM of MgCl2, and 0.0133% Tween-20, which were stored in a 4° C. refrigerator and protected from light after preparation. Freshly prepared DTT was added to a final concentration of 5.33 mM before use.
(§4) The working concentration of DMSO in the reaction was 0.5%.
(§5) The above-mentioned components, after being mixed, were placed on a shaker and incubated at room temperature in the dark for 1 h. 10 μL of test solution was then added to all test groups (including Blank, PC and Test groups).
10 μL of test solution contains the following components: 16 mM of EDTA (Thermo scientific, #15575), 1 nM of phosphorylated U-MBP protein antibody (Perkin Elmer, #TRF-0201), and 1× detection damping fluid (Perkin Elmer, #CR97-100).
After the test solution was added, the solution was placed on a shaker and continually incubated at room temperature for 1 h in the dark. At the end of incubation, Victor X5 fluorescence microplate reader of Perkin Elmer was used to read the signal; the wavelength of excitation light was 320 nm, and the wavelengths of emission light were 615 nm and 665 nm. The inhibition rate was calculated as below.
1. For all groups, a value of 665 nm/615 nm (hereinafter referred to as Ratio) was calculated, and an inhibition rate was calculated based on the Ratio of each group;
(§6) 2. Inhibition rate=(PCRatio-TestRatio)/(PCRatio-BlankRatio)*100%; and
(§7) 3. XLFIT 5.0 software (IDBS, UK) was used to fit a graph by using the logarithmic value of the compound concentration as the X-axis and the inhibition rater as the Y-axis, and a four-parameter model was used to calculate the half inhibitory concentration IC50 of the compound.

Test [2] deals with CDK1/CycB (Homo sapiens (Human), UniProt P06493). Kind of test: LANCE Ultra kinase activity inhibition assay, CDK1/CycB. Particulars: ATP 4 μM, highest compound concentration 10 μM.
Excerpt: as §1
(§8) The assay for each kinase includes three test groups, i.e., a background group (Blank), a non-inhibition group (PC), and compound testing group (Test). The components included in each test group were as follows:
as §2, §3, §4, §5
(§9) After the test solution was added, the solution was placed on a shaker and continually incubated at room temperature for 1 h in the dark. […] The inhibition rate was calculated as below.
as §6, §7
Background: Time-resolved FRET reads energy transfer from a long-lived donor to a nearby acceptor.

Test [3] deals with CDK2/CycA (Homo sapiens (Human), UniProt P24941). As to the kind of experiment: LANCE Ultra kinase activity inhibition assay, CDK2/CycA. Particulars: ATP 10 μM, highest compound concentration 10 μM.
Excerpt: as §1, §8, §2, §3, §4, §5, §9, §6, §7

Chain of CDK9/CycT (P50750 whole entry): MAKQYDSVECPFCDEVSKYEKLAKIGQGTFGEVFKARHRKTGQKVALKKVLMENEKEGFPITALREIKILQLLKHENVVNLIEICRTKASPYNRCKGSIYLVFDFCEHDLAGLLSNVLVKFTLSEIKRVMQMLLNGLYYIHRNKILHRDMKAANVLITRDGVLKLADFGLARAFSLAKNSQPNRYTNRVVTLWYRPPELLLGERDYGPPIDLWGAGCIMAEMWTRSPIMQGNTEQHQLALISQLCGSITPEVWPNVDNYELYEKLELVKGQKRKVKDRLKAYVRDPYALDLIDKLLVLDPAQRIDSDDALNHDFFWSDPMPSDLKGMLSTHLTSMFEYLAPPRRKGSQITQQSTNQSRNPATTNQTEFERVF
Chain of CDK9/CycT (O60563 whole entry partner): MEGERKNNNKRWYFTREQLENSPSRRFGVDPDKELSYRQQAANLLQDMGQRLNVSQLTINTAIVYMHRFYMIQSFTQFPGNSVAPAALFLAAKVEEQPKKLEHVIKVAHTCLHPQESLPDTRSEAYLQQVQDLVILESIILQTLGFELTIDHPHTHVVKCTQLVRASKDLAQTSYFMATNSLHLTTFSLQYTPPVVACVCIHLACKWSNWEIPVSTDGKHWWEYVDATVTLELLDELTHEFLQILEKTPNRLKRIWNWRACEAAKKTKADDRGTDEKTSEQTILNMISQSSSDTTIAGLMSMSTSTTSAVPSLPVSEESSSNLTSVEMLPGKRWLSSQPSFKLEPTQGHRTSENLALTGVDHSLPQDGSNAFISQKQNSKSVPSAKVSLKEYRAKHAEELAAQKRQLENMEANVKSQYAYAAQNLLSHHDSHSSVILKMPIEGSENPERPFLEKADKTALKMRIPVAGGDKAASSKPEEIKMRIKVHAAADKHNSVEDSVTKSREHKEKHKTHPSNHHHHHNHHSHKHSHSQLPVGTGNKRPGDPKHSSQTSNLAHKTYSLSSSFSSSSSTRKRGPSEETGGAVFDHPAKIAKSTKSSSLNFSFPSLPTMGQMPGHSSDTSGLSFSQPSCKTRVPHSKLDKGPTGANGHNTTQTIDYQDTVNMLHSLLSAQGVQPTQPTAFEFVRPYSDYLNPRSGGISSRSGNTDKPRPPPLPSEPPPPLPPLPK
Chain of CDK1/CycB (P06493 whole entry): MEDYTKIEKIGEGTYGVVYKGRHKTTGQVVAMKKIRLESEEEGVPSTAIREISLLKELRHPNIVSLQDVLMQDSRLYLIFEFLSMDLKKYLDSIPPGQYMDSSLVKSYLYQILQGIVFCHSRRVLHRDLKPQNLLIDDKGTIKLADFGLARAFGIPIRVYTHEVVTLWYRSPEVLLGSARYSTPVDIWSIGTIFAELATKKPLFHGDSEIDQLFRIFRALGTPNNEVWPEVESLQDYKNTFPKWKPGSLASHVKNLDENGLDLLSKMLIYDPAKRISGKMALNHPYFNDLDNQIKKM
Chain of CDK1/CycB (P14635 whole entry partner): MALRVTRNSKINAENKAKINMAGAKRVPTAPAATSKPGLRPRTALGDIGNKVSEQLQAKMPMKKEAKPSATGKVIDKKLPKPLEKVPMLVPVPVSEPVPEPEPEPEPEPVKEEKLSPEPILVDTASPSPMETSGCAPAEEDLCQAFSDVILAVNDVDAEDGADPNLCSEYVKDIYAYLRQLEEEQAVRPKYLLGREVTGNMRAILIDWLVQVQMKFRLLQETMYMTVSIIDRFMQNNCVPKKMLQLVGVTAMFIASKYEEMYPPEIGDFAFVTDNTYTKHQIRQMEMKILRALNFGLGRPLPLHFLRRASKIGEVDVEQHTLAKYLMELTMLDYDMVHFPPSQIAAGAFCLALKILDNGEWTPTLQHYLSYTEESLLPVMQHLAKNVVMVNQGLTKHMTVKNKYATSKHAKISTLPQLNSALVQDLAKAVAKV

As to `CC(c1cc(N[C@H]2CC[C@H](N)C2)n2nccc2n1)(C1CC1)C1CC1` [Compound Z-22], the 50% inhibitory concentration (IC50) in test [1] is 0.013 µM; in test [2], 1.77 µM; in test [3], 8.64 µM.
On the same counts, the results for `CC(C)c1cnn2c(N[C@H]3CC[C@H](N)C3)cc(C(C3CC3)C3CC3)nc12` [Compound Z-24] are 0.084 µM, 2.53 µM and 2.92 µM.
For `Cc1cnn2c(N[C@H]3CC[C@H](N)C3)cc(CC3(C)CC3)nc12` [Compound Z-25] the same measures were 0.021 µM, 9.87 µM and 8.71 µM.
Consider `Cc1cnn2c(N[C@H]3CC[C@H](N)C3)cc([C@H](C)C3(C)CC3)nc12` [Compound Z-26-P1], for which the values for the IC50 in test [1], in test [2] and in test [3] were 0.005 µM, 1.62 µM and 1.8 µM, respectively.
For `Cc1cnn2c(N[C@H]3CC[C@H](N)C3)cc([C@@H](C)C3(C)CC3)nc12` [Compound Z-26-P2] the same measures were 0.078 µM, above 10 µM and above 10 µM.
For `Cc1cnn2c(N[C@H]3CC[C@H](N)C3)cc(C(C)C3(C)CC3)nc12` (stereo partly drawn) [Compound Z-26] the same measures were 0.026 µM, 3.92 µM and 7.06 µM.
On the same counts, the results for `C[C@@H](c1cc(N[C@H]2CC[C@H](N)C2)n2nccc2n1)C1(C)CC1` [Compound Z-27-P1] are 0.047 µM, 1.21 µM and above 10 µM.
Consider `C[C@H](c1cc(N[C@H]2CC[C@H](N)C2)n2nccc2n1)C1(C)CC1` [Compound Z-27-P2], for which the 50% inhibitory concentration (IC50) in test [1] worked out at 0.008 µM; in test [2], 2.08 µM; in test [3] it was 2.78 µM.
As for `CC(c1cc(N[C@H]2CC[C@H](N)C2)n2nccc2n1)C1(C)CC1` (stereo partly drawn) [Compound Z-27], the figures for the IC50 in test [1], in test [2] and in test [3] were 0.009 µM, 0.772 µM and 2.82 µM, respectively.
For `CC[C@@H](c1cc(N[C@H]2CC[C@H](N)C2)n2nccc2n1)C1CC1` [Compound Z-28-P1] the same measures were 0.006 µM, 2.05 µM and 4.51 µM.
On the same counts, the results for `CC[C@H](c1cc(N[C@H]2CC[C@H](N)C2)n2nccc2n1)C1CC1` [Compound Z-28-P2] are 0.012 µM, 2.39 µM and above 10 µM.
For `CCC(c1cc(N[C@H]2CC[C@H](N)C2)n2nccc2n1)C1CC1` (stereo partly drawn) [Compound Z-28] the same measures were 0.011 µM, 1.86 µM and 3.07 µM.
In the case of `CC1(Cc2cc(N[C@H]3CC[C@H](N)C3)n3ncc(Cl)c3n2)CC1` [Compound Z-29], the values for the IC50 in test [1], in test [2] and in test [3] were 0.011 µM, 1.89 µM and 2.06 µM, respectively.
For the compound `CC[C@H](c1cc(N[C@H]2CC[C@H](N)C2)n2ncc(C)c2n1)C1CC1` [Compound Z-30-P1], the IC50 in test [1] turned out to be 0.01 µM; in test [2], 1.12 µM; in test [3], 0.968 µM.
On the same counts, the results for `CC[C@@H](c1cc(N[C@H]2CC[C@H](N)C2)n2ncc(C)c2n1)C1CC1` [Compound Z-30-P2] are 0.022 µM, 3.54 µM and 4.91 µM.
On the same counts, the results for `CCC(c1cc(N[C@H]2CC[C@H](N)C2)n2ncc(C)c2n1)C1CC1` (stereo partly drawn) [Compound Z-30] are 0.01 µM, 1.36 µM and 1.55 µM.
On the same counts, the results for `CC(c1cc(NC2CCNC2)n2ncc(F)c2n1)C1CC1` (stereo not drawn) [Compound Z-31] are 0.104 µM, 3.21 µM and 6.39 µM.
In the case of `Cc1cnn2c(N[C@H]3CC[C@H](N)C3)cc([C@H](C)C3CC3)nc12` [Compound Z-32-P1], the results for the 50% inhibitory concentration (IC50) in test [1], in test [2] and in test [3] were 0.099 µM, above 10 µM and above 10 µM, respectively.
For the compound `Cc1cnn2c(N[C@H]3CC[C@H](N)C3)cc(C(C)C3CC3)nc12` (stereo partly drawn) [Compound Z-32], the figures for the IC50 in test [1], in test [2] and in test [3] were 0.009 µM, 0.996 µM and 0.967 µM, respectively.
For `N[C@H]1CC[C@H](Nc2cc(C(C3CC3)C3CC3)nc3c(C(F)(F)F)cnn23)C1` [Compound Z-33] the same measures were 0.006 µM, 0.347 µM and 0.355 µM.
Regarding `Cc1cnn2c(N[C@H]3CC[C@H](N)C3)cc(C(C)(C)C3CC3)nc12` [Compound Z-34], the IC50 was 0.036 µM in test [1], 8.09 µM in test [2] and above 10 µM in test [3].
For `CC(C)(c1cc(N[C@H]2CC[C@H](N)C2)n2ncc(Cl)c2n1)C1CC1` [Compound Z-35] the same measures were 0.018 µM, 1.5 µM and 1.56 µM.
As for `CC(C)(c1cc(N[C@H]2CC[C@H](N)C2)n2ncc(F)c2n1)C1CC1` [Compound Z-36], the IC50 is 0.006 µM in test [1], 0.924 µM in test [2] and 2.11 µM in test [3].
Regarding `N[C@H]1CC[C@H](Nc2cc(C(F)(F)C3CC3)nc3ccnn23)C1` [Compound Z-37], the values for the IC50 in test [1], in test [2] and in test [3] were 0.027 µM, 7.18 µM and above 10 µM, respectively.
On the same counts, the results for `CC(C)(c1cc(N[C@H]2CC[C@H](N)C2)n2nccc2n1)C1CCC1` [Compound Z-39] are 0.034 µM, 2.48 µM and above 10 µM.
For `Cc1cnn2c(N[C@H]3CC[C@H](N)C3)cc(C(C)(C)C3CCC3)nc12` [Compound Z-40] the same measures were 0.048 µM, above 10 µM and above 10 µM.
As to `N[C@H]1CC[C@H](Nc2cc([C@@H](F)C3CCC3)nc3ccnn23)C1` [Compound Z-41-P1], the IC50 in test [1] was 0.047 µM; in test [2] it was 4.59 µM; in test [3], above 10 µM.
Turning to `N[C@H]1CC[C@H](Nc2cc([C@H](F)C3CCC3)nc3ccnn23)C1` [Compound Z-41-P2], the half-inhibitory concentration (IC50) in test [1] worked out at 0.013 µM; in test [2], 2.97 µM; in test [3], 3.77 µM.
With `N[C@H]1CC[C@H](Nc2cc(C(F)C3CCCC3)nc3ccnn23)C1` (stereo partly drawn) [Compound Z-42], the IC50 in test [1] is 0.022 µM; in test [2], 3.3 µM; in test [3], 8.5 µM.
For `CCC(c1cc(N[C@H]2CC[C@H](N)C2)n2nccc2n1)C1CCC1` (stereo partly drawn) [Compound Z-43] the same measures were 0.056 µM, 7.1 µM and above 10 µM.
On the same counts, the results for `COC[C@H](c1cc(N[C@H]2CC[C@H](N)C2)n2nccc2n1)C1CC1` [Compound Z-44] are 0.082 µM, above 10 µM and above 10 µM.
Take `CC(C)(c1cc(N[C@H]2CC[C@H](N)C2)n2ncc(Cl)c2n1)C1CCC1` [Compound Z-46]: the figures for the half-maximal inhibitory concentration (IC50) in test [1], in test [2] and in test [3] were 0.01 µM, 1.15 µM and 1.81 µM, respectively.
For `CC(c1cc(NC2CCN(N)C2)n2ncc(Cl)c2n1)C1CC1` (stereo not drawn) [Compound Z-47] the same measures were 0.035 µM, 1.04 µM and 1.91 µM.
For `CC(c1cc(NC2CCN(N)C2)n2ncc(Cl)c2n1)C1CC1` (stereo not drawn) [Compound Z-48] the same measures were 0.068 µM, 1.47 µM and 2.22 µM.
In the case of `COC(c1cc(N[C@H]2CC[C@H](N)C2)n2nccc2n1)C1CC1` (stereo partly drawn) [Compound Z-49], the IC50 in test [1] was 0.062 µM; in test [2], above 10 µM; in test [3], above 10 µM.
Regarding `N[C@H]1CC[C@H](Nc2cc(CC3CCC3)nc3ccnn23)C1` [Compound Z-50], the results for the IC50 in test [1], in test [2] and in test [3] were 0.064 µM, 6.57 µM and above 10 µM, respectively.

Usually IC50 stands for the concentration that gives 50% inhibition. A lower IC50 goes with greater potency in that assay.
